{"source": "PubChem BioAssay AID1259409", "about": "(Chemical Carcinogenesis Research Information System (CCRIS), 2018)", "origin": "cited, not measured here", "tested_on": "rodent chemically induced tumor inhibition, incidence and multiplicity", "test": "CCRIS tumor inhibitor studies", "note": "“And” between values parts separate entries of the source, which are not always exact repeats. Identical values can stand only once."}
{"compound": "N#CO", "values": [{"measurement": "tumour outcome (control, treated, inhibition, significance)", "setting": "Carcinogen: 1,2-DIMETHYLHYDRAZINE, 540-73-8, Dose [Inhibitor]: 0.013 MMOL/G IN DIET BEGINNING 1 WK POST LAST CARCINOGEN DOSE (STUDY DURATION: 42 WK), Route [Inhibitor]: ORAL, Species: MOUSE, Strain/Sex: CF-1/FEMALE, Target Tissue: Type of Lesion: LARGE BOWEL: ADENOCARCINOMA, Dose [Carcinogen]: 0.6 MG IN 0.2 ML EDTA SOLUTION (PH 6.5) 2X WK FOR 8 WKS., Promoter: NONE USED", "result": "20%, 0%, 100%, p<0.05"}, {"measurement": "tumour outcome (control, treated, inhibition, significance)", "setting": "Carcinogen: 1,2-DIMETHYLHYDRAZINE, 540-73-8, Dose [Inhibitor]: 0.013 MMOL/G IN DIET BEGINNING 1 WK POST LAST CARCINOGEN DOSE (STUDY DURATION: 42 WK), Route [Inhibitor]: ORAL, Species: MOUSE, Strain/Sex: CF-1/FEMALE, Target Tissue: Type of Lesion: LARGE BOWEL: ADENOMA, Dose [Carcinogen]: 0.6 MG IN 0.2 ML EDTA SOLUTION (PH 6.5) 2/WK FOR 8 WK, Promoter: NONE USED", "result": "41%, 18%, 56%, not significant"}, {"measurement": "tumour outcome (control, treated, inhibition, significance)", "setting": "Carcinogen: 1,2-DIMETHYLHYDRAZINE, 540-73-8, Dose [Inhibitor]: 0.026 MMOL/G IN DIET BEGINNING 1 WK POSE LAST CARCINOGEN DOSE (STUDY DURATION: 42 WK), Route [Inhibitor]: ORAL, Species: MOUSE, Strain/Sex: CF-1/FEMALE, Target Tissue: Type of Lesion: LARGE BOWEL: ADENOMA, Dose [Carcinogen]: 0.6 MG IN 0.2 ML EDTA SOLUTION (PH 6.5) 2/WK FOR 8 WK, Promoter: NONE USED", "result": "41%, 17%, 58%, not significant"}, {"measurement": "tumour outcome (control, treated, inhibition, significance)", "setting": "Carcinogen: 1,2-DIMETHYLHYDRAZINE, 540-73-8, Dose [Inhibitor]: 0.026 MMOL/G IN DIET BEGINNING 1 WK POST LAST CARCINOGEN DOSE (STUDY DURATION: 42 WK), Route [Inhibitor]: ORAL, Species: MOUSE, Strain/Sex: CF-1/FEMALE, Target Tissue: Type of Lesion: LARGE BOWEL: ADENOCARCINOMA, Dose [Carcinogen]: 0.6 MG IN 0.2 ML EDTA SOLUTION (PH 6.5) 2/WK FOR 8 WK, Promoter: NONE USED", "result": "15%, 6%, 60%, not significant and 20%, 6%, 70%, not significant and 18%, 6%, 67%, not significant"}, {"measurement": "tumour outcome (control, treated, inhibition, significance)", "setting": "Carcinogen: 1,2-DIMETHYLHYDRAZINE, 540-73-8, Dose [Inhibitor]: 0.026 MMOL/G IN DIET BEGINNING 1 WK POST LAST CARCINOGEN DOSE (STUDY DURATION: 42 WK), Route [Inhibitor]: ORAL, Species: MOUSE, Strain/Sex: CF-1/FEMALE, Target Tissue: Type of Lesion: LARGE BOWEL: ADENOMA, Dose [Carcinogen]: 0.6 MG IN 0.2 ML EDTA SOLUTION (PH 6.5) 2/WK FOR 8 WK, Promoter: NONE USED", "result": "33%, 11%, 67%, not significant and 37%, 14%, 62%, p<0.05"}, {"measurement": "tumour outcome (control, treated, inhibition, significance)", "setting": "Carcinogen: 7,12-DIMETHYLBENZ(A)ANTHRACENE, 57-97-6, Dose [Inhibitor]: 0.013 MMOL/G IN DIET BEGINNING 1 WK AFTER CARCINOGEN ADMINISTRATION (STUDY DURATION: 18 WK), Route [Inhibitor]: ORAL, Species: RAT, Strain/Sex: SPRAGUE-DAWLEY/FEMALE, Target Tissue: Type of Lesion: MAMMARY GLAND: TUMOR, Dose [Carcinogen]: 12 MG DMBA IN 1.0 ML OLIVE OIL ONCE, Promoter: NONE USED", "result": "100%, 77%, 23%, p<0.01"}, {"measurement": "tumour outcome (control, treated, inhibition, significance)", "setting": "Carcinogen: 7,12-DIMETHYLBENZ(A)ANTHRACENE, 57-97-6, Dose [Inhibitor]: 0.026 MMOL/G IN DIET BEGINNING 1 WK AFTER CARCINOGEN ADMINISTRATION (STUDY DURATION: 16 WK), Route [Inhibitor]: ORAL, Species: RAT, Strain/Sex: SPRAGUE-DAWLEY/FEMALE, Target Tissue: Type of Lesion: MAMMARY GLAND: TUMOR, Dose [Carcinogen]: 12 MG DMBA IN 1.0 ML OLIVE OIL ONCE, Promoter: NONE USED", "result": "100%, 60%, 40%, p<0.001"}, {"measurement": "tumour outcome (control, treated, inhibition, significance)", "setting": "Carcinogen: 7,12-DIMETHYLBENZ(A)ANTHRACENE, 57-97-6, Dose [Inhibitor]: 0.026 MMOL/G IN DIET BEGINNING 1 WK AFTER CARCINOGEN ADMINISTRATION (STUDY DURATION: 18 WK), Route [Inhibitor]: ORAL, Species: RAT, Strain/Sex: SPRAGUE-DAWLEY/FEMALE, Target Tissue: Type of Lesion: MAMMARY GLAND: TUMOR, Dose [Carcinogen]: 12 MG DMBA IN 1.0 ML OLIVE OIL ONCE, Promoter: NONE USED", "result": "94%, 63%, 33%, p<0.05 and 100%, 63%, 37%, p<0.01"}]}
{"compound": "CC(C)C(=O)Nc1ccc([N+](=O)[O-])c(C(F)(F)F)c1", "values": [{"measurement": "tumour outcome (control, treated, inhibition, significance)", "setting": "Carcinogen: DIETHYLNITROSAMINE, 55-18-5, Dose [Inhibitor]: 0, 0.5 MG/G IN DIET FOR 3 WK BEGINNING AT 25 WK OF AGE (STUDY DURATION: 52 WK), Route [Inhibitor]: ORAL, Species: MOUSE, Strain/Sex: B6C3F1/MALE, Target Tissue: Type of Lesion: LIVER: TUMOR, Dose [Carcinogen]: 0.2 MICROMOLAR/G BW ONCE AT 6 WK OF AGE, Promoter: NONE USED", "result": "81%, 50%, 38%, p<0.05"}, {"measurement": "tumour outcome (control, treated, inhibition, significance)", "setting": "Carcinogen: DIETHYLNITROSAMINE, 55-18-5, Dose [Inhibitor]: 0, 0.5 MG/G IN DIET FOR 3 WK POST CARCINOGEN DOSE (STUDY DURATION: 52 WK), Route [Inhibitor]: ORAL, Species: MOUSE, Strain/Sex: B6C3F1/MALE, Target Tissue: Type of Lesion: LIVER: TUMOR, Dose [Carcinogen]: 0.2 MICROMOLAR/G BW ONCE AT 6 WK OF AGE, Promoter: NONE USED", "result": "81%, 63%, 22%, not significant"}, {"measurement": "tumour outcome (control, treated, inhibition, significance)", "setting": "Carcinogen: DIETHYLNITROSAMINE, 55-18-5, Dose [Inhibitor]: 0, 0.5 MG/G IN DIET FOR 27 WK BEGINNING AT 25 WK OF AGE (STUDY DURATION: 52 WK), Route [Inhibitor]: ORAL, Species: MOUSE, Strain/Sex: B6C3F1/MALE, Target Tissue: Type of Lesion: LIVER: TUMOR, Dose [Carcinogen]: 0.2 MICROMOLAR/G BW ONCE, Promoter: NONE USED", "result": "81%, 53%, 35%, p<0.05"}, {"measurement": "tumour outcome (control, treated, inhibition, significance)", "setting": "Carcinogen: DIETHYLNITROSAMINE, 55-18-5, Dose [Inhibitor]: 0, 0.5 MG/G IN DIET FOR DURATION OF STUDY (STUDY DURATION: 52 WK), Route [Inhibitor]: ORAL, Species: MOUSE, Strain/Sex: B6C3F1/MALE, Target Tissue: Type of Lesion: LIVER: TUMOR, Dose [Carcinogen]: 0.2 MICROMOLAR/G BW ONCE AT 6 WK OF AGE, Promoter: NONE USED", "result": "81%, 97%, -20%, p<0.05"}, {"measurement": "tumour outcome (control, treated, inhibition, significance)", "setting": "Carcinogen: N-BUTYL-N-(4-HYDROXYBUTYL)NITROSAMINE, 3817-11-6, Dose [Inhibitor]: 0, 50 MG/KG 2/WK FOR 11 WK BEGINNING POST CARCINOGEN TREATMENT (STUDY DURATION:21WK), Route [Inhibitor]: ORAL, Species: RAT, Strain/Sex: WISTAR/MALE, Target Tissue: Type of Lesion: URINARY BLADDER: CARCINOMA, Dose [Carcinogen]: 0.05% IN DRINKING WATER FOR 10 WK, Promoter: NONE USED", "result": "15/17 (88%), 12/16, 75%, 15%, not significant"}, {"measurement": "tumour outcome (control, treated, inhibition, significance)", "setting": "Carcinogen: N-BUTYL-N-(4-HYDROXYBUTYL)NITROSAMINE, 3817-11-6, Dose [Inhibitor]: 0, 50 MG/KG 2/WK FOR 13 WK BEGINNING POST CARCINOGEN TREATMENT (STUDY DURATION: 20 WK), Route [Inhibitor]: ORAL, Species: RAT, Strain/Sex: WISTAR/MALE, Target Tissue: Type of Lesion: URINARY BLADDER: CARCINOMA, Dose [Carcinogen]: 0.05% IN DRINKING WATER FOR 7 WK, Promoter: NONE USED", "result": "25/39 (64%), 10/21 (48%), 25%, not significant"}, {"measurement": "tumour outcome (control, treated, inhibition, significance)", "setting": "Carcinogen: N-BUTYL-N-(4-HYDROXYBUTYL)NITROSAMINE, 3817-11-6, Dose [Inhibitor]: 0, 200 MG/KG 2/WK FOR 13 WK BEGINNING POST CARCINOGEN TREATMENT (STUDY DURATION:20 WK), Route [Inhibitor]: ORAL, Species: RAT, Strain/Sex: WISTAR/MALE, Target Tissue: Type of Lesion: URINARY BLADDER: CARCINOMA, Dose [Carcinogen]: 0.05% IN DRINKING WATER FOR 7 WK, Promoter: NONE USED", "result": "25/39 (64%), 5/17 (29%), 55%, p<0.05"}, {"measurement": "tumour outcome (control, treated, inhibition, significance)", "setting": "Carcinogen: N-NUTYL-N-(4-HYDROXYBUTYL)NITROSAMINE, 3817-11-6, Dose [Inhibitor]: 0, 100 MG/KG 2/WK FOR 13 WK BEGINNING POIST CARCINOGEN TREATMENT (STUDY DURATION: 20 WK), Route [Inhibitor]: ORAL, Species: RAT, Strain/Sex: WISTAR/MALE, Target Tissue: Type of Lesion: URINARY BLADDER: CARCINOMA, Dose [Carcinogen]: 0.05% IN DRINKING WATER FOR 7 WK, Promoter: NONE USED", "result": "25/39 (64%), 7/17 (41%), 36%, not significant"}]}
{"compound": "C[C@@H](O)[C@@H]1NC(=O)[C@H](CCCCN)NC(=O)[C@@H](Cc2c[nH]c3ccccc23)NC(=O)[C@H](Cc2ccccc2)NC(=O)[C@@H](NC(=O)[C@H](N)Cc2ccccc2)CSSC[C@@H](C(=O)N[C@H](CO)[C@@H](C)O)NC1=O", "values": [{"measurement": "tumour outcome (control, treated, inhibition, significance)", "setting": "Carcinogen: N-NITROSOBIS(2-OXOPROPYL)AMINE [60599-38-4], Dose [Inhibitor]: 0, 3 UG/KG/D FOR 4 WK BEGINNING 1 WK PRIOR TO FIRST CARCINOGEN (STUDY DURATION: 40 WK), Route [Inhibitor]: SUBCUTANEOUSLY IMPLANTED OSMOTIC PUMP, Species: HAMSTER, Strain/Sex: SYRIAN/FEMALE, Target Tissue: Type of Lesion: PANCREAS: ADENOCARCINOMA, Dose [Carcinogen]: 10 MG/KG BW ONCE/WK FOR 3 WK (STUDY DURATION: 40 WK), Promoter: NONE", "result": "8/18 (44%), 11/20 (55%), -25%, not significant"}, {"measurement": "tumour outcome (control, treated, inhibition, significance)", "setting": "Carcinogen: N-NITROSOBIS(2-OXOPROPYL)AMINE [60599-38-4], Dose [Inhibitor]: 0, 6 UG/KG/D FOR 4 WK BEGINNING 1 WK PRIOR TO FIRST CARCINOGEN (STUDY DURATION: 40 WK), Route [Inhibitor]: SUBCUTANEOUSLY IMPLANTED OSMOTIC PUMP, Species: HAMSTER, Strain/Sex: SYRIAN/FEMALE, Target Tissue: Type of Lesion: PANCREAS: ADENOCARCINOMA, Dose [Carcinogen]: 10 MG/KG BW ONCE/WK FOR 3 WK (STUDY DURATION: 40 WK), Promoter: NONE", "result": "8/18 (44%), 9/20 (45%), -2%, not significant"}]}
